Experiments:
[1] = test system: hyperuricemia model animals; test: Effect on serum uric acid level of hyperuricemia model rats (potassium oxonate + uric acid); type: in vivo, SD rats; conditions: for Serum uric acid content, Day 0: Day 0, before modeling and before drug, 8 rats; for Serum uric acid content, Day 0 / Serum uric acid content, Day 12 / Serum uric acid content, Day 18: X ± SD; for Serum uric acid content, Day 12: Day 12, after modeling, before drug (dosing from D13)
From the text: (§1) Lysozyme granules, enteric lysozyme granules, and benzbromarone fine granules. Each test drug was moistened and uniformly mixed with 0.5% sodium carboxymethylcellulose for easy administration.
(§2) SD rats. The rats had free access to drinking water and food, and they were adaptively reared for one week before test.
(§3) Except for rats in the blank group, the other rats were modeled for 12 days, and the serum uric acid level of each rat was detected. Then the rats were evenly divided into groups according to the uric acid level of each rat, with 8 animals in each group.
(§4) Lysozyme groups and enteric lysozyme groups: High and low doses of the lysozyme granules and enteric lysozyme granules were respectively taken orally, and the dosages were 10 mg/kg and 30 mg/kg based on the active ingredient, once a day.
(§5) Benzbromarone group: The benzbromarone fine granules were taken orally at a dose of 30 mg/kg based on the active ingredient, once a day.
(§6) The test was carried out for a total of 18 days.
(§7) On day 1 of the test, except for the animals in the blank group, the animals in the other groups were orally given a modeling agent (1.5 g/kg potassium oxonate +0.3 g/kg uric acid, dissolved in 0.5% sodium carboxymethylcellulose) once to start modeling, and thereafter, the same amount of the modeling agent was administrated at the same time every day. 0.5 ml of blood was taken from the orbit before the start of the test (DO) and on day 12
(§8) (D12) of the test, respectively, and centrifuged, then the serum was taken and tested for serum uric acid level using a uric acid assay kit and a microplate reader; in addition, 0.5 g of fresh midsection rat feces were taken, diluted and uniformly mixed with four times volume of phosphate buffer, centrifuged, ultrasonically mixed until uniform, incubated at 100° C. for 40 minutes, cooled and then centrifuged, and the supernatant was taken and tested for fecal uric acid level using the uric acid assay kit and the microplate reader.
(§9) Thereafter, the rats were grouped according to the serum uric acid value of each rat. From day 13 (D13), each rat was given the test drug intragastrically every day, as well as the modeling agent every day. The interval between the administration of the test drug and the administration of the modeling agent was more than 1 hour. The drug administration was stopped after day 18 (D18) of the test, and the serum uric acid levels and fecal uric acid levels were determined according to the previous method.

[2] = test system: hyperuricemia model animals; test: Effect on fecal uric acid level of hyperuricemia model rats (potassium oxonate + uric acid); type: in vivo, SD rats; conditions: for Fecal uric acid content, Day 0: Day 0, before modeling and before drug; for Fecal uric acid content, Day 0 / Fecal uric acid content, Day 12 / Fecal uric acid content, Day 18: X ± SD; for Fecal uric acid content, Day 12: Day 12, after modeling, before drug; for Fecal uric acid levels compared with the model control group: day 18
From the text: as §1, §2, §3, §4, §5, §6, §7, §8, §9

[3] = test system: patient with hyperuricemia accompanied by gout; test: Lysozyme enteric tablets in patient with hyperuricemia accompanied by gout; type: in vivo, human; conditions: same patient before lysozyme; serum uric acid remained at 700 μmol/L or more
From the text: The administration of lysozyme enteric tablets (produced by Xiangbei Welman Pharmaceutical Co., Ltd.) by two patients with hyperuricemia is described below to specifically illustrate the present disclosure.
A person suffering from gout had obvious redness, swelling and pain in the ankles and toes, and difficulty in walking. […] The lysozyme enteric tablets were tried daily (once in the morning, once at noon and once in the evening, 2 g each time). One month later, they felt that the frequency of pain episodes decreased and the difficulty in walking was alleviated.

[4] = 30 mg/kg oral once a day D13-D18
[5] = 10 mg/kg oral once a day D13-D18

| Molecule | Serum uric acid content, Day 0 ([1]; 30 mg/kg group) | Serum uric acid content, Day 12 ([1]; 30 mg/kg group) | Serum uric acid content, Day 18 [1, 4] | Fecal uric acid content, Day 0 ([2]; 30 mg/kg group) | Fecal uric acid content, Day 12 ([2]; 30 mg/kg group) | Fecal uric acid content, Day 18 [2, 4] | Fecal uric acid levels compared with the model control group [2] | Effects of past use to relieve pain and reduce uric acid [3] | Serum uric acid content, Day 0 ([1]; 10 mg/kg group) | Serum uric acid content, Day 12 ([1]; 10 mg/kg group) | Serum uric acid content, Day 18 [1, 5] | Serum uric acid levels compared with the model control group ([1]; day 18) | Fecal uric acid content, Day 0 ([2]; 10 mg/kg group) | Fecal uric acid content, Day 12 ([2]; 10 mg/kg group) | Fecal uric acid content, Day 18 [2, 5] |
| --- | --- | --- | --- | --- | --- | --- | --- | --- | --- | --- | --- | --- | --- | --- | --- |
| CCc1oc2ccccc2c1C(=O)c1cc(Br)c(O)c(Br)c1 [Benzbromarone, reference compound] | 41.02 ± 3.71 µmol/L | 117.14 ± 17.74 µmol/L | 153.45 ± 26.17 µmol/L | 1.12 ± 0.17 mmol/L | 1.25 ± 0.31 mmol/L | 1.34 ± 0.31 mmol/L | did not increase significantly |  |  |  |  |  |  |  |  |
| Oc1ncnc2[nH]ncc12 [allopurinol] |  |  |  |  |  |  |  | not good |  |  |  |  |  |  |  |
| CC(C)Cc1ccc(C(C)C(=O)O)cc1 (centres unmarked) [ibuprofen] |  |  |  |  |  |  |  | not good |  |  |  |  |  |  |  |
| Lysozyme: Homemade granules: lysozyme with a potency of more than 20000 U/mg mixed with the same amount of starch, granulated with water | 40.49 ± 3.33 µmol/L | 120.79 ± 17.64 µmol/L | 149.76 ± 20.12 µmol/L | 1.15 ± 0.16 mmol/L | 1.24 ± 0.20 mmol/L | 1.98 ± 0.20 mmol/L | significantly higher |  | 43.66 ± 4.16 µmol/L | 122.12 ± 10.27 µmol/L | 161.97 ± 22.11 µmol/L | significantly lower | 0.98 ± 0.13 mmol/L | 1.26 ± 0.24 mmol/L | 1.84 ± 0.20 mmol/L |
